Reference: patent publication US20240342292A1, “Compounds for the Degradation of EGFR Kinase” (BeiGene Switzerland GmbH, priority 2021, published 2024)

Legend:
L858R/T790M/C797S EGFR = biological target: T1, L858R/T790M/C797S EGFR (Homo sapiens, UniProt P00533, C797S/L858R/T790M); experiment: EGFR degradation HTRF assay in H1975-clone #25 (LTC) cells; format: cell-based; conditions: 16h treatment; for DC50: H1975 # 25-LTC (L858R/T790M/C797S), HTRF; for Dmax: NCI-H1975, H1975 # 25-LTC (L858R/T790M/C797S), maximum percentage of degradation
T1 construct: expressed in transfected cells; host or cells: H1975 clone #25 (lentiviral over-expression, endogenous EGFR knocked out by sgRNA)
T1 sequence (P00533 25-1210 T790M/C797S/L858R): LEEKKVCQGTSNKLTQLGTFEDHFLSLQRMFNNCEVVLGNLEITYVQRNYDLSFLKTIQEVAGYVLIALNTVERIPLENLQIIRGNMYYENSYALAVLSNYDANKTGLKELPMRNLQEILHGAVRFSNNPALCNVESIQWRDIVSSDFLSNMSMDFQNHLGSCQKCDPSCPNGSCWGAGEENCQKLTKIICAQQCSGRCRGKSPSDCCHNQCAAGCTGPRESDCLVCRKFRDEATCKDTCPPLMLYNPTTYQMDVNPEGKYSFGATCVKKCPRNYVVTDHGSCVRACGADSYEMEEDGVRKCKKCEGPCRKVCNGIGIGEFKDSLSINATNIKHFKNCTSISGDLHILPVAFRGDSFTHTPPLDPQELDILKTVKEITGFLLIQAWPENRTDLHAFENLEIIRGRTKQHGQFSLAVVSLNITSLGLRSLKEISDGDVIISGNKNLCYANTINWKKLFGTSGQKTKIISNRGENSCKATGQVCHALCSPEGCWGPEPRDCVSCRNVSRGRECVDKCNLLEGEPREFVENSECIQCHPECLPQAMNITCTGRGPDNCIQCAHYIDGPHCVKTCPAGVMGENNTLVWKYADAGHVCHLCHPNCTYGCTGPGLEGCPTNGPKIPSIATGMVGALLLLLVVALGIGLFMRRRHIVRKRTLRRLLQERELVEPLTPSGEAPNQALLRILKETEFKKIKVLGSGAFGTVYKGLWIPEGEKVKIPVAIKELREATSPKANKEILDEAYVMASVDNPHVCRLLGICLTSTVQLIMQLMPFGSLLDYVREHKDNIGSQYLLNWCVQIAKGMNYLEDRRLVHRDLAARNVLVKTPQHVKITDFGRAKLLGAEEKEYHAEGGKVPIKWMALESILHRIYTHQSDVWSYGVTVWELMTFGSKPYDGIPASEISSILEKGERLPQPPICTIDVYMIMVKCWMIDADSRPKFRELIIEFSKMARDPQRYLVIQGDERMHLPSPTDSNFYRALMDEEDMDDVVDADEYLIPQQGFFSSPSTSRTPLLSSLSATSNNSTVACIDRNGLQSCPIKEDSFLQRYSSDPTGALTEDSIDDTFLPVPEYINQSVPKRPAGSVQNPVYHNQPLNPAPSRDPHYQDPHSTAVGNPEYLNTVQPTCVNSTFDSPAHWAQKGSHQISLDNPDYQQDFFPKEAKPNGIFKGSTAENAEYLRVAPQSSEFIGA
From the text: (§1) H1975-clone #28(Del19/T790M/C797S, or abbr: DTC), H1975-clone #23(Del19/C797S, or abbr: DC), H1975-clone #25(L858R/T790M/C797S, or abbr: LTC) and H1975-clone #8 (L858R/C797S, or abbr: LC). EGFR-Del19:T790M/C797S, EGFR-Del19/C797S, EGFR-L858R/T790M/C797S and EGFR-L858R/C797S were stably expressed in H1975 cell lines by lentivirus-mediated over-expression, respectively. The EGFR over-expressed cells then underwent knockout, in which the EGFR targeting sgRNA was designed to only target the endogenous EGFR copies and preserve the exogenous EGFR copies. Followed by the knockout, the edited H1975 cells were seeded in 96 well plates at the concentration of […], cultured for about 2 weeks to allow single clones formation. The formed clones were screened by DNA sequencing and whole exon sequencing analysis for the desired edition. H1975-clone #28, H1975-clone #23, H1975-clone #25 and H1975-clone #8 were finally confirmed as homozygous Del19/T790M/C797S EGFR, Dell9/C797S EGFR, L858R/T790M/C797S EGFR and L858R/C797S EGFR clones, respectively.
(§2) H1975-#25, H1975-#28, H1975-#23 and H1975-#8 cells are treated with compounds diluted in 0.2% DMSO cell culture medium on day 2, incubate for 16h, 37° C., 5% CO2. the final concentration of compounds in all assay is start with 10 uM, 5-fold dilution, total 8 doses were included.
(§3) After 16h treatment, add HTRF lysis buffer to each well; seal the plate and incubate 1 hour at room temperature on a plate shaker; Once the cells are lysed, 16 μL of cell lysate are transferred to a PE 384-well HTRF detection plate; 4 μL of pre-mixed HTRF antibodies are added to each well; Cover the plate with a plate sealer, spin 1000 rpm for 1 min, Incubate overnight at room temperature; Read on BMG PheraStar with HTRF protocol (337 nm-665 nm-620 nm).
(§4) The IC50 (DC50) value of a compound can be obtained by fitting the following equation
(§5) Y=Bottom+(TOP−Bottom)/(1+((IC50/X)^hillslope))
(§6) Wherein, X and Y are known values, and IC50, Hillslope, Top and Bottom are the parameters obtained by fitting with software. Y is the inhibition percentage (calculated from the equation), X is the concentration of the compound: IC50 is the concentration of the compound when the 50% inhibition is reached. The smaller the IC50 value is, the stronger the inhibitory ability of the compound is. Vice versa, the higher the IC50 value is, the weaker the ability the inhibitory ability of the compound is: Hillslope represents the slope of the fitted curve, generally around 1*; Bottom represents the minimum value of the curve obtained by data fitting, which is generally 0%±20%; Top represents the maximum value of the curve obtained by data fitting, which is generally 100%±20%. The experimental data were fitted by calculating and analyzing with Dotmatics data analysis software.

Del19/T790M/C797S EGFR = experiment: EGFR degradation HTRF assay in H1975-clone #28 (DTC) cells; format: cell-based; conditions: H1975 # 28 DTC (Del19/T790M/C797S), 16h treatment; for DC50: HTRF; for Dmax (%): maximum percentage of degradation
From the text: as §1, §2, §3, §4, §5, §6

DC50 (L858R/T790M/C797S EGFR) [nM] | Dmax (L858R/T790M/C797S EGFR) [%] | DC50 (Del19/T790M/C797S EGFR) [nM] | Structure (SMILES) | Dmax (%) (Del19/T790M/C797S EGFR)
0.546 | 88 | 0.623 | Cc1cc2cc(n1)-c1cnn(C)c1OCCC[C@@H](C)CN1/C(=N/C2=O)Nc2ccc(N3CCN(CCNc4cc(F)c([C@H]5CCC(=O)NC5=O)c(F)c4)CC3)cc21 (single isomer, unassigned) [Example 368] | 80.06
2.51 | 89.8 | 0.794 | Cc1cc2cc(n1)-c1cnn(C)c1OCCC[C@@H](C)CN1/C(=N/C2=O)Nc2ccc(N3CCN([C@H]4CCN(c5cc(F)c([C@H]6CCC(=O)NC6=O)c(F)c5)C[C@@H]4F)CC3)cc21 (single isomer, unassigned) [Example 424] | 82.75
1.25 | 86.6 | 0.633 | Cc1cc2cc(n1)-c1cnn(C)c1OCC[C@H]1C[C@@H]1CN1/C(=N/C2=O)Nc2ccc(N3CCN([C@H]4C[C@H](Nc5cc(F)c([C@H]6CCC(=O)NC6=O)c(F)c5)C4)CC3)cc21 (single isomer, unassigned) [Example 443] | 78.26
2.1 | 89 | 1.3 | Cc1cc2cc(n1)-c1cnn(C)c1OCCC[C@@H](C)CN1/C(=N/C2=O)Nc2ccc(N3CCN([C@H]4C[C@H](Nc5cc(F)c([C@H]6CCC(=O)NC6=O)c(F)c5)C4)CC3)cc21 (single isomer, unassigned) [Example 444] | 82.11
0.431 | 89.6 | 0.629 | Cc1cc2cc(n1)-c1cnn(C)c1OCCC[C@@H](C)CN1/C(=N/C2=O)Nc2ccc(N3CCN(C4CCN(c5cnc([C@H]6CCC(=O)NC6=O)c(F)c5)CC4)CC3=O)cc21 (single isomer, unassigned) [Example 460] | 75.27
0.6 | 94.3 | 0.5 | Cc1cc2cc(n1)-c1cnn(C)c1OCCC[C@@H](C)CN1/C(=N/C2=O)Nc2ccc(CN3CCC4(CC3)CCN(C(=O)C3CN(c5cc(F)c([C@H]6CCC(=O)NC6=O)c(F)c5)C3)CC4)cc21 [Example 12, (R)-3-(2,6-difluoro-4-(3-(9-(((R,E)-1^1,2^6,7-trimethyl-3-oxo-5^2,53-dihydro-1^1H,5^1H-11-oxa-4-aza-5(2,1)-benzo[d]imidazola-2(2,4)-pyridina-1(4,5)-pyrazolacycloundecaphane-5^6-yl)methyl)-3,9-diazaspiro[5.5]undecane-3-carbonyl)azetidin-1-yl)phenyl)piperidine-2,6-dione] | 86.7
10.6 | 82.1 |  | Cc1cc2cc(n1)-c1cnn(C)c1OCCC[C@@H](C)CN1/C(=C/C2=O)Nc2ccc(CN3CCC(N4CCC(c5cc(F)c([C@H]6CCC(=O)NC6=O)c(F)c5)CC4)CC3)cc21 [Example 16, (R)-3-(2,6-difluoro-4-(1′-(((R,E)-1^1,2^6,7-trimethyl-3-oxo-5^2,5^3-dihydro-1^1H,5^1H-11-oxa-4-aza-5(2,1)-benzo[d]imidazola-2(2,4)-pyridina-1(4,5)-pyrazolacycloundecaphane-5^6-yl)methyl)-[1,4′-bipiperidin]-4-yl)phenyl)piperidine-2,6-dione] | 
4.4 | 87.4 | 2.1 | Cc1cc2cc(n1)-c1cnn(C)c1OCCC[C@@H](C)CN1/C(=N/C2=O)Nc2ccc(CN3CCC(N4CCN(C5CN(c6cc(F)c([C@H]7CCC(=O)NC7=O)c(F)c6)C5)CC4)CC3)cc21 [Example 18, (R)-3-(2,6-difluoro-4-(3-(4-(1-(((R,E)-1^1,2^6,7-trimethyl-3-oxo-5^2,5^3-dihydro-1^1H,5^1H-11-oxa-4-aza-5(2,1)-benzo[d]imidazola-2(2,4)-pyridina-1(4,5)-pyrazolacycloundecaphane-5^6-yl)methyl)piperidin-4-yl)piperazin-1-yl)azetidin-1-yl)phenyl)piperidine-2,6-dione] | 75.8
2.7 | 77.8 |  | Cc1cc2cc(n1)-c1cnn(C)c1OCCC[C@@H](C)CN1/C(=N/C2=O)Nc2ccc(CN3CCC4(CC3)CCN(CC3CCN(c5ccc6c(c5)CN(C5CCC(=O)NC5=O)C6=O)CC3)CC4)cc21 (stereo partly drawn) [Example 21, 3-(1-oxo-5-(4-((9-(((R,E)-1^1,2^6,7-trimethyl-3-oxo-5^2,5^3-dihydro-1^1H,5^1H-11-oxa-4-aza-5(2,1)-benzo[d]imidazola-2(2,4)-pyridina-1(4,5)-pyrazolacycloundecaphane-5^6-yl)methyl)-3,9-diazaspiro[5.5]undecan-3-yl)methyl)piperidin-1-yl)isoindolin-2-yl)piperidine-2,6-dione] | 
1.5 | 78.5 |  | Cc1cc2cc(n1)-c1cnn(C)c1OCCC[C@@H](C)CN1/C(=N/C2=O)Nc2ccc(CN3CCN(C[C@@H]4CCN(c5cc(F)c([C@H]6CCC(=O)NC6=O)c(F)c5)C4)CC3)cc21 [Example 88, (R)-3-(2,6-difluoro-4-((S)-3-((4-(((R,E)-1^1,2^6,7-trimethyl-3-oxo-5^2,5^3-dihydro-1^1H,5^1H-1l-oxa-4-aza-5(2,1)-benzo[d]imidazola-2(2,4)-pyridina-1(4,5)-pyrazolacycloundecaphane-5^6-yl)methyl)piperazin-1-yl)methyl)pyrrolidin-1-yl)phenyl)piperidine-2,6-dione] | 
1.1 | 86.9 |  | Cc1cc2cc(n1)-c1cnn(C)c1OCCC[C@@H](C)CN1/C(=N/C2=O)Nc2ccc(CN3CCN(C[C@H]4CCN(c5cc(F)c([C@H]6CCC(=O)NC6=O)c(F)c5)C4)CC3)cc21 [Example 90, (R)-3-(2,6-difluoro-4-((R)-3-((4-(((R,E)-1^1,2^6,7-trimethyl-3-oxo-5^2,5^3-dihydro-^1H,5^1H-11-oxa-4-aza-5(2,1)-benzo[d]imidazola-2(2,4)-pyridina-1(4,5)-pyrazolacycloundecaphane-5^6-yl)methyl)piperazin-1-yl)methyl)pyrrolidin-1-yl)phenyl)piperidine-2,6-dione] | 
1.9 | 92.7 |  | Cc1cc2cc(n1)-c1cnn(C)c1OCCC[C@@H](C)CN1/C(=N/C2=O)Nc2ccc(CN3CC4(CCN(CCc5cc(F)c([C@H]6CCC(=O)NC6=O)c(F)c5)CC4)C3)cc21 [Example 93, (R)-3-(2,6-difluoro-4-(2-(2-(((R,E)-1^1,2^6,7-trimethyl-3-oxo-5^2,5^3-dihydro-1^1H,5^1H-11-oxa-4-aza-5(2,1)-benzo[d]imidazola-2(2,4)-pyridina-1(4,5)-pyrazolacycloundecaphane-5^6-yl)methyl)-2,7-diazaspiro[3.5]nonan-7-yl)ethyl)phenyl)piperidine-2,6-dione] | 
0.6 | 82.5 |  | Cc1cc2cc(n1)-c1cnn(C)c1OCCC[C@@H](C)CN1/C(=N/C2=O)Nc2ccc(CN3CCN(CCc4cc(F)c([C@H]5CCC(=O)NC5=O)c(F)c4)[C@H](C)C3)cc21 [Example 107, (R)-3-(2,6-difluoro-4-(2-((R)-2-methyl-4-(((R,E)-1^1,2^6,7-trimethyl-3-oxo-5^2,5^3-dihydro-1^1H,5^1H-11-oxa-4-aza-5(2,1)-benzo[d]imidazola-2(2,4)-pyridina-1(4,5)-pyrazolacycloundecaphane-5^6-yl)methyl)piperazin-1-yl)ethyl)phenyl)piperidine-2,6-dione] | 
